Reference: patent publication US4562211A, “Pharmaceutically active 2-substituted-1-(omega-aminoalkoxy)benzenes” (Mitsubishi Chemical Industries, Ltd., priority 1976, dated 1985)
Where a name gives a salt, the structure may show the parent alone.

Tests used:
[1] = test system: reserpine (5 mg/kg i.p.) induced hypothermia; test: Antireserpine activity in mice (antagonism of reserpine induced hypothermia), relative to Amitriptyline; format: in vivo; settings: Amitriptyline=1
Description: The 2-substituted-1-(omega-aminoalkoxy)benzenes and the acid addition salts thereof may be purified by recrystallization employing a suitable solvent such as alcohol-ether.
The compounds were administered intraperitoneally and the activities of the compounds were compared with those of Amitriptyline.

[2] = Acute toxicity in mice, LD50 (Litchfield-Wilcoxon); settings: mouse, in vivo, ip
Description: The compounds have been tested in mice for antidepressant, sedative, anticonvulsant and anticholinergic activity. The compounds were administered intraperitoneally and the activities of the compounds were compared with those of Amitriptyline.
LD50 was calculated by Litchfield-Wilcoxon method.

[3] = test system: spontaneous motor activity; test: CNS depressant activity: spontaneous motor activity depression (ANIMEX apparatus); format: in vivo; settings: Mus musculus, po, mice
tremorine induced tremor = test: Central anticholinergic effect: antitremorine effect; format: in vivo; settings: Mus musculus, po, mice
[4] = test system: neurological deficit as measured by traction test; test: CNS depressant activity: muscle relaxant action, traction test; format: in vivo; settings: Mus musculus, po, mice
[5] = test system: electroshock induced tonic extensor; test: Anticonvulsant activity: antagonism of electroshock induced tonic extensor; format: in vivo; settings: Mus musculus, po; mice; p.o.; dose preventing 50% of response; read-out: Anti-Convulsant Activity ED50

| SMILES | Antireserpine activity, Relative Potency [1] | LD50 [2] | other results |
| --- | --- | --- | --- |
| CCOc1ccccc1Oc1ccccc1OCCCCNC [compound 10] | 0.90 |  |  |
| CNCCCCOc1ccccc1Cc1ccc(C)cc1 [compound 4] | 0.44 |  |  |
| Cc1cccc(Cc2ccccc2)c1OCCCCN(C)C [No. 2, 2-(4-dimethylaminobutoxy)-3-methyldiphenylmethane] | 0.66 | 500 to 700 mg/kg |  |
| CNCCCCOc1ccccc1Cc1ccccc1O [No. 8, 2-(4-methylaminobutoxy)-2'-hydroxydiphenylmethane] |  |  | ED50 [3]: 175 mg/kg; ED50 (tremorine induced tremor): > 200 mg/kg; ED50 [4]: 390 mg/kg; ED50 [5]: 190 mg/kg |
| Cc1ccccc1Oc1ccccc1OCCCN1CCCC1 [compound 16] | 0.42 |  |  |
| Cc1ccc(OCCCCN(C)C)c(Cc2ccccc2)c1 [compound 3] | 0.70 | 500 to 700 mg/kg |  |
| CNCCCCOc1ccccc1Cc1ccccc1O [compound 8] | 1.00 | 600 to 700 mg/kg |  |
| CN(C)CCCCOc1ccccc1Cc1ccccc1O [compound 9] | 0.77 |  |  |
| CNCCCOc1ccccc1Oc1ccccc1C [compound 12] | 1.12 |  |  |
| COc1ccc(Cc2ccccc2OCCCCN(CCO)CCO)cc1 [compound 6] | 0.44 |  |  |
| CNCCCCOc1ccccc1Oc1ccccc1C [compound 11] | 0.65 |  |  |
| CNCCCCOc1c(C)cccc1Cc1ccccc1 [No. 1, 2-(4-methylaminobutoxy)-3-methyldiphenylmethane hydrochloride] | 0.56 | 500 to 700 mg/kg |  |
| Cc1ccccc1Oc1ccccc1OCCCN(C)C [compound 13] | 0.95 |  |  |
| CCN(CC)CCCOc1ccccc1Oc1ccccc1C [compound 15] | 0.44 |  |  |
| CNCCCCOc1ccccc1Cc1ccc(Cl)cc1 [compound 5] | 0.44 |  |  |
| CCNCCCOc1ccccc1Oc1ccccc1C [compound 14] | 0.46 |  |  |
| CN(C)CCC=C1c2ccccc2CCc2ccccc21 [Amitriptyline, reference compound] |  | 300 mg/kg | ED50 [3]: 28 mg/kg; ED50 (tremorine induced tremor): 11 mg/kg; ED50 [4]: 40 mg/kg; ED50 [5]: 19 mg/kg |
| CNCCCCOc1ccccc1Cc1ccccc1OC [compound 7] | 0.85 | 600 mg/kg |  |
